Reference: PubChem BioAssay (NCI)
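Tested at 5 concentrations; 48 h exposure; 96-well plates; endpoints linearly interpolated, else capped at highest concentration. The concentration for 50% growth inhibition is given as GI50. At the TGI there is no net growth.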

Tests used:
Assay in all cases: DTP human tumour cell line panel, 48 h
786-0 renal = tested on: 786-0 renal
A498 renal = tested on: A498 renal
A549 NSCLC = tested on: A549 NSCLC
ACHN renal = tested on: ACHN renal
BT-549 breast = tested on: BT-549 breast
CAKI-1 renal = tested on: CAKI-1 renal
CCRF-CEM leukemia = tested on: CCRF-CEM leukemia
COLO 205 colon = tested on: COLO 205 colon
DU-145 prostate = tested on: DU-145 prostate
EKVX NSCLC = tested on: EKVX NSCLC
HCC-2998 colon = tested on: HCC-2998 colon
HCT-116 colon = tested on: HCT-116 colon
HCT-15 colon = tested on: HCT-15 colon
HL-60(TB) leukemia = tested on: HL-60(TB) leukemia
HOP-62 NSCLC = tested on: HOP-62 NSCLC
HOP-92 NSCLC = tested on: HOP-92 NSCLC
HS 578T breast = tested on: HS 578T breast
HT29 colon = tested on: HT29 colon
IGROV1 ovarian = tested on: IGROV1 ovarian
K-562 leukemia = tested on: K-562 leukemia
KM12 colon = tested on: KM12 colon
LOX IMVI melanoma = tested on: LOX IMVI melanoma
MALME-3M melanoma = tested on: MALME-3M melanoma
MCF7 breast = tested on: MCF7 breast
MDA-MB-231 breast = tested on: MDA-MB-231 breast
MDA-MB-435 = tested on: MDA-MB-435
MOLT-4 leukemia = tested on: MOLT-4 leukemia
NCI-H226 lung = tested on: NCI-H226 lung
NCI-H23 lung = tested on: NCI-H23 lung
NCI-H460 lung = tested on: NCI-H460 lung
NCI-H522 lung = tested on: NCI-H522 lung
NCI/ADR-RES ovarian = tested on: NCI/ADR-RES ovarian
OVCAR-3 ovarian = tested on: OVCAR-3 ovarian
OVCAR-4 ovarian = tested on: OVCAR-4 ovarian
OVCAR-5 ovarian = tested on: OVCAR-5 ovarian
OVCAR-8 ovarian = tested on: OVCAR-8 ovarian
PC-3 prostate = tested on: PC-3 prostate
RPMI-8226 leukemia = tested on: RPMI-8226 leukemia
RXF 393 renal = tested on: RXF 393 renal
SF-268 CNS = tested on: SF-268 CNS
SF-295 CNS = tested on: SF-295 CNS
SF-539 CNS = tested on: SF-539 CNS
SK-MEL-2 melanoma = tested on: SK-MEL-2 melanoma
SK-MEL-28 melanoma = tested on: SK-MEL-28 melanoma
SK-MEL-5 melanoma = tested on: SK-MEL-5 melanoma
SK-OV-3 ovarian = tested on: SK-OV-3 ovarian
SN12C renal = tested on: SN12C renal
SNB-19 CNS = tested on: SNB-19 CNS
SNB-75 CNS = tested on: SNB-75 CNS
SR leukemia = tested on: SR leukemia
SW-620 colon = tested on: SW-620 colon
T-47D breast = tested on: T-47D breast
TK-10 renal = tested on: TK-10 renal
U251 CNS = tested on: U251 CNS
UACC-257 melanoma = tested on: UACC-257 melanoma
UACC-62 melanoma = tested on: UACC-62 melanoma
UO-31 renal = tested on: UO-31 renal

C[C@]12CC[C@H](O)C[C@@H]1CC[C@@H]1[C@@H]2CC[C@@]2(C)[C@H]1CC[C@@H]2[C@](C)(O)CCc1ccc(F)cc1
GI50 (786-0 renal): 6.14 µM
TGI (786-0 renal): 21 µM
GI50 (A498 renal): 2.4 µM
TGI (A498 renal): 15.6 µM
GI50 (A549 NSCLC): 5.04 µM
TGI (A549 NSCLC): 39.2 µM
GI50 (ACHN renal): 5.81 µM
TGI (ACHN renal): 18.9 µM
GI50 (BT-549 breast): 3.85 µM
TGI (BT-549 breast): 17.5 µM
GI50 (CAKI-1 renal): 5.43 µM
TGI (CAKI-1 renal): 20.1 µM
GI50 (CCRF-CEM leukemia): 4.56 µM
TGI (CCRF-CEM leukemia): 59.7 µM
GI50 (COLO 205 colon): 8.81 µM
TGI (COLO 205 colon): 42.4 µM
GI50 (DU-145 prostate): 7.14 µM
TGI (DU-145 prostate): 23.7 µM
GI50 (EKVX NSCLC): 2.27 µM
TGI (EKVX NSCLC): 18.1 µM
GI50 (HCC-2998 colon): 9.79 µM
TGI (HCC-2998 colon): 23.8 µM
GI50 (HCT-116 colon): 3.65 µM
TGI (HCT-116 colon): 16.4 µM
GI50 (HCT-15 colon): 3.82 µM
TGI (HCT-15 colon): 18.3 µM
GI50 (HL-60(TB) leukemia): 3.87 µM
TGI (HL-60(TB) leukemia): 24 µM
GI50 (HOP-62 NSCLC): 13.1 µM
TGI (HOP-62 NSCLC): 43.9 µM
GI50 (HOP-92 NSCLC): 4.22 µM
TGI (HOP-92 NSCLC): 22.5 µM
GI50 (HS 578T breast): 7.71 µM
TGI (HS 578T breast): 37.9 µM
GI50 (HT29 colon): 6.42 µM
TGI (HT29 colon): 36.7 µM
GI50 (IGROV1 ovarian): 6.04 µM
TGI (IGROV1 ovarian): 20.7 µM
GI50 (K-562 leukemia): 1.88 µM
TGI (K-562 leukemia): > 100 µM
GI50 (KM12 colon): 4.22 µM
TGI (KM12 colon): 19.4 µM
GI50 (LOX IMVI melanoma): 3.41 µM
TGI (LOX IMVI melanoma): 15.1 µM
GI50 (MALME-3M melanoma): 17.9 µM
TGI (MALME-3M melanoma): 41.8 µM
GI50 (MCF7 breast): 2.55 µM
TGI (MCF7 breast): 15 µM
GI50 (MDA-MB-231 breast): 5.33 µM
TGI (MDA-MB-231 breast): 20.5 µM
GI50 (MDA-MB-435): 7.84 µM
TGI (MDA-MB-435): 25 µM
GI50 (MOLT-4 leukemia): 3.21 µM
TGI (MOLT-4 leukemia): 24.6 µM
GI50 (NCI-H226 lung): 5.97 µM
TGI (NCI-H226 lung): 24.8 µM
GI50 (NCI-H23 lung): 3.78 µM
TGI (NCI-H23 lung): 18.4 µM
GI50 (NCI-H460 lung): 3.38 µM
TGI (NCI-H460 lung): 14 µM
GI50 (NCI-H522 lung): 4.45 µM
TGI (NCI-H522 lung): 49.4 µM
GI50 (NCI/ADR-RES ovarian): 2.87 µM
TGI (NCI/ADR-RES ovarian): 13.9 µM
GI50 (OVCAR-3 ovarian): 4.72 µM
TGI (OVCAR-3 ovarian): 16.7 µM
GI50 (OVCAR-4 ovarian): 1.77 µM
TGI (OVCAR-4 ovarian): 18.4 µM
GI50 (OVCAR-5 ovarian): 5.64 µM
TGI (OVCAR-5 ovarian): 19.6 µM
GI50 (OVCAR-8 ovarian): 8.35 µM
TGI (OVCAR-8 ovarian): 62.7 µM
GI50 (PC-3 prostate): 5.02 µM
TGI (PC-3 prostate): 30.7 µM
GI50 (RPMI-8226 leukemia): 2.4 µM
TGI (RPMI-8226 leukemia): 43.9 µM
GI50 (RXF 393 renal): 2.46 µM
TGI (RXF 393 renal): 10.8 µM
GI50 (SF-268 CNS): 8.46 µM
TGI (SF-268 CNS): 25.4 µM
GI50 (SF-295 CNS): 2.43 µM
TGI (SF-295 CNS): 10.9 µM
GI50 (SF-539 CNS): 6.94 µM
TGI (SF-539 CNS): 20.8 µM
GI50 (SK-MEL-2 melanoma): 11.4 µM
TGI (SK-MEL-2 melanoma): 51.9 µM
GI50 (SK-MEL-28 melanoma): 12.3 µM
TGI (SK-MEL-28 melanoma): 26.4 µM
GI50 (SK-MEL-5 melanoma): 1.32 µM
TGI (SK-MEL-5 melanoma): 6.81 µM
GI50 (SK-OV-3 ovarian): 16.1 µM
TGI (SK-OV-3 ovarian): 76.2 µM
GI50 (SN12C renal): 3.79 µM
TGI (SN12C renal): 15.7 µM
GI50 (SNB-19 CNS): 10.5 µM
TGI (SNB-19 CNS): 25.1 µM
GI50 (SNB-75 CNS): 4.07 µM
TGI (SNB-75 CNS): 26.9 µM
GI50 (SR leukemia): 2.11 µM
TGI (SR leukemia): 22.3 µM
GI50 (SW-620 colon): 7.13 µM
TGI (SW-620 colon): 24.1 µM
GI50 (T-47D breast): 1.95 µM
TGI (T-47D breast): 45.1 µM
GI50 (TK-10 renal): 16.7 µM
TGI (TK-10 renal): 56.4 µM
GI50 (U251 CNS): 10.9 µM
TGI (U251 CNS): 31 µM
GI50 (UACC-257 melanoma): 4.53 µM
TGI (UACC-257 melanoma): 35.5 µM
GI50 (UACC-62 melanoma): 10.6 µM
TGI (UACC-62 melanoma): 26.7 µM
GI50 (UO-31 renal): 4.43 µM
TGI (UO-31 renal): 31.4 µM
